What all share (assay type): cell-based
In assay [1] the test system is A-549. The assay can be described thus: Inhibition of cells growth by colorimetric assay (SRB), A-549. The settings on record: for GI50 / LC50 (concentration for 50% cell killing): Homo sapiens, A549, 48 h; for GI50: read-out: GI50 A-549; for LC50 (concentration for 50% cell killing): read-out: LC50 A-549, A-549. The gist of the method:
(§1)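 Human cancer and endothelial lines are seeded at 5×10^3 cells per well and, after 18 h, treated for 48 h with compound dissolved in DMSO/EtOH/PBS (0.5:0.5:99) at 10 to 10^−8 μg/ml. Cell mass is quantified by SRB staining (OD 490 nm), and growth inhibition, total growth inhibition and cell kill are calculated from triplicate wells.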

For assay [2], the system named is HT-29. The assay can be described thus: Inhibition of cells growth by colorimetric assay (SRB), HT-29. As to conditions: for GI50 / LC50 (concentration for 50% cell killing): Homo sapiens, HT-29, 48 h; for GI50: read-out: GI50 HT-29; for LC50 (concentration for 50% cell killing): read-out: LC50 HT-29, HT-29. In a few lines:
as §1

Assay [3] relates to HMEC1. Briefly: Inhibition of cells growth by colorimetric assay (SRB), HMEC1. The protocol:
(§2) 2°.—Inhibition of Cells Growth by Colorimetric Assay.
(§3) A colorimetric type of assay, using sulforhodamine B (SRB) reaction has been adapted for a quantitative measurement of cell growth and viability [following the technique described by Philip Skehan, et al. (1990), New colorimetric cytotoxicity assay for anticancer drug screening, J. Natl. Cancer Inst., 82:1107-1112]
(§4) This form of the assay employs 96 well cell culture microplates of 9 mm diameter (Faircloth, 1988; Mosmann, 1983). Most of the cell lines are obtained from American Type Culture Collection (ATCC) derived from different human cancer types.
(§5) Cells are maintained in RPMI 1640 10% FBS, supplemented with 0.1 g/l penicillin and 0.1 g/l streptomycin sulfate and then incubated at 37° C., 5% CO2 and 98% humidity. For the experiments, cells were harvested from subconfluent cultures using trypsin and resuspended in fresh medium before plating.
(§6) Cells are seeded in 96 well microtiter plates, at 5×10^3 cells per well in aliquots of 195 μl medium, and they are allowed to attach to the plate surface by growing in drug free medium for 18 hours. Afterward, samples are added in aliquots of 5 μl in a ranging from 10 to 10^−8 μg/ml, dissolved in DMSO/EtOH/PBS (0.5:0.5:99). After 48 hours exposure, the antitumor effect are measured by the SRB methodology: cells are fixed by adding 50 μl of cold 50% (wt/vol) trichloroacetic acid (TCA) and incubating for 60 minutes at 4° C. Plates are washed with deionized water and dried. One hundred μl of SRB solution (0.4% wt/vol in 1% acetic acid) is added to each microtiter well and incubated for 10 minutes at room temperature. Unbound SRB is removed by washing with 1% acetic acid. Plates are air dried and bound stain is solubilized with Tris buffer. Optical densities are read on a automated spectrophotometric plate reader at a single wavelength of 490 nm.
(§7) The values for mean+/−SD of data from triplicate wells are calculated. Some parameters for cellular responses can be calculated: GI=growth inhibition, TGI=total growth inhibition (cytostatic effect) and LC=cell killing (cytotoxic effect).
(§8) Obtained results may predict the usefulness of a certain drug as a potential cancer treatment. For this technique, compounds which show GI50 values smaller than 10 μg/ml are selected to continue with further studies. GI50's data allow to predict that not only could a drug be cystostatic, but also it could have a potential in terms of tumor reduction.

Assay [4] relates to K-562. The assay can be described thus: Inhibition of cells growth by colorimetric assay (SRB), K-562. The settings on record: SRB, 48 hours exposure. As to the method:
as §2, §3, §4, §5, §6, §7, §8

Assay [5] concerns SK-MEL-28. Briefly: Inhibition of cells growth by colorimetric assay (SRB), SK-MEL-28. The settings on record: SRB, 48 hours exposure. As to the method: as §2, §3, §4, §5, §6, §7, §8
Assay [6] relates to LoVo. Briefly: Inhibition of cells growth by colorimetric assay (SRB), LoVo. As to conditions: SRB, 48 hours exposure. As to the method: as §2, §3, §4, §5, §6, §7, §8
In assay [7] the test system is LoVo-Dox. The assay can be described thus: Inhibition of cells growth by colorimetric assay (SRB), LoVo-Dox. The settings on record: SRB, 48 hours exposure. The protocol: as §2, §3, §4, §5, §6, §7, §8
Assay [8] deals with DU-145. The assay can be described thus: Inhibition of cells growth by colorimetric assay (SRB), DU-145. The settings on record: SRB, 48 hours exposure. As to the method: as §2, §3, §4, §5, §6, §7, §8
The subject of assay [9] is SK-BR-3. Briefly: Inhibition of cells growth by colorimetric assay (SRB), SK-BR-3. The settings on record: SRB, 48 hours exposure. The protocol: as §2, §3, §4, §5, §6, §7, §8
The subject of assay [10] is IGROV-1. The assay can be described thus: Inhibition of cells growth by colorimetric assay (SRB), IGROV-1. As to conditions: SRB, 48 hours exposure. The protocol:
as §2, §3, §4, §5, §6, §7, §8

For assay [11], the system named is IGROV-ET. The assay can be described thus: Inhibition of cells growth by colorimetric assay (SRB), IGROV-ET. As to conditions: SRB, 48 hours exposure. As to the method: as §2, §3, §4, §5, §6, §7, §8
Assay [12] has as its system SK-OV-3. The assay can be described thus: Inhibition of cells growth by colorimetric assay (SRB), SK-OV-3. The settings on record: SRB, 48 hours exposure. The protocol: as §2, §3, §4, §5, §6, §7, §8
Assay [13] has as its system PANC-1. Briefly: Inhibition of cells growth by colorimetric assay (SRB), PANC-1. As to conditions: SRB, 48 hours exposure. The protocol: as §2, §3, §4, §5, §6, §7, §8

Molecules are shown by their SMILES. Like-named read-outs stand apart in the source and are kept apart here.

As a reminder, the GI50 is the concentration that inhibits growth by half. By LC50 is commonly meant the concentration that kills 50% of the test population. For `COc1cc2c(cc1OC(=O)OC(C)(C)C)CCN[C@]21CS[C@@H]2c3c(OC(C)=O)c(C)c4c(c3[C@H](COC1=O)N1C2[C@H]2c3c(cc(C)c(OC)c3OC(C)C)C[C@@H]([C@@H]1C#N)N2C)OCO4` (stereo partly drawn) [Compound 46], in [1] (A-549, SRB, 48 hours exposure), the “TGI A-549” value was 4.06E-07. For the same compound, the GI50 in assay [1] is 0.179 µM; in assay [2] it was 0.398 µM; in assay [3] (Homo sapiens, HMEC-1, 48 h, read-out: GI50 HMEC-1) it was 0.152 µM. Further, the LC50 (concentration for 50% cell killing) in [1] (SRB, 48 hours exposure) amounted to 0.927 µM; in assay [2] (SRB, 48 hours exposure) it was 11 µM. Also, in assay [2] (HT-29, SRB, 48 hours exposure), the “TGI HT-29” value is given as 1.95E-06. In addition, in assay [3] (HMEC-1, SRB, 48 hours exposure), the “TGI HMEC-1” value is reported as 5.18E-07. For the same compound, in assay [3] (Homo sapiens, HMEC-1, 48 h, read-out: LC50 HMEC-1, HMEC-1, SRB, 48 hours exposure), the LC50 was 11 µM.
Take `COc1cc2c(cc1O)CCN[C@]21CS[C@@H]2c3c(OC(C)=O)c(C)c4c(c3[C@H](COC1=O)N1C2[C@H]2c3c(cc(C)c(OC)c3OC(C)C)C[C@@H]([C@@H]1C#N)N2C)OCO4` (stereo partly drawn) [Compound 48]: the GI50 in assay [4] (Homo sapiens, K562, 48 h, K-562, read-out: GI50 K-562) was 0.223 µM; in assay [1] (A-549, SRB, 48 hours exposure), 0.272 µM; in [5] (Homo sapiens, SK-MEL-28, 48 h, MEL-28, read-out: GI50 MEL-28), 1.1 µM; in [2] (HT-29, SRB, 48 hours exposure), 1.97 µM; in assay [6] (Homo sapiens, LoVo, 48 h, LOVO, read-out: GI50 LOVO) it was 0.713 µM; in [7] (Homo sapiens, 48 h, LOVO-DOX, read-out: GI50 LOVO-DOX) it was 0.79 µM. The GI50 was found to be 0.614 µM in assay [8] (Homo sapiens, DU-145, 48 h, DU-145, read-out: GI50 DU-145); 0.443 µM in [9] (Homo sapiens, SK-BR-3, 48 h, SK-BR3, read-out: GI50 SK-BR3); 0.439 µM in assay [10] (Homo sapiens, IGROV-1, 48 h, IGROV, read-out: GI50 IGROV); 0.678 µM in assay [11] (Homo sapiens, 48 h, IGROV-ET, read-out: GI50 IGROV-ET); 0.614 µM in assay [12] (Homo sapiens, SK-OV-3, 48 h, SK-OV3, read-out: GI50 SK-OV3); 0.91 µM in [13] (Homo sapiens, PANC-1, 48 h, PANC-1, read-out: GI50 PANC-1). For the same compound, the LC50 (50% cell killing) in assay [4] (Homo sapiens, K562, 48 h, read-out: LC50 K-562, K-562) amounted to 1.23 µM. The “TGI K-562” value in assay [4] (K-562) is recorded as 5.47E-07. Moreover, in assay [1] (A-549, SRB, 48 hours exposure), the “TGI A-549” value was 7.50E-07. Besides, the LC50 (concentration for 50% cell killing) in assay [1] (SRB, 48 hours exposure) was determined as 3.89 µM; in assay [2] (SRB, 48 hours exposure) it was 12.3 µM; in [6] (Homo sapiens, LoVo, 48 h, read-out: LC50 LOVO, LOVO), 12.3 µM. Also, the CC50 is 7.06 µM in assay [5] (Homo sapiens, SK-MEL-28, 48 h, read-out: LC50 MEL-28, MEL-28); 12.3 µM in assay [7] (Homo sapiens, 48 h, read-out: LC50 LOVO-DOX, LOVO-DOX); 12.3 µM in assay [8] (Homo sapiens, DU-145, 48 h, read-out: LC50 DU-145, DU-145); 6.97 µM in assay [9] (Homo sapiens, SK-BR-3, 48 h, read-out: LC50 SK-BR3, SK-BR3); 7.98 µM in [10] (Homo sapiens, IGROV-1, 48 h, read-out: LC50 IGROV, IGROV); 12.3 µM in assay [11] (Homo sapiens, 48 h, read-out: LC50 IGROV-ET, IGROV-ET). Also, the “TGI MEL-28” value in assay [5] (MEL-28) was found to be 2.87E-06. Moreover, the “TGI HT-29” value in [2] (HT-29, SRB, 48 hours exposure) worked out at 1.23E-05. Besides, the “TGI LOVO” value in assay [6] (LOVO) was found to be 2.95E-06. In addition, in assay [7] (LOVO-DOX), the “TGI LOVO-DOX” value is reported as 4.18E-06. The “TGI DU-145” value in [8] (DU-145) was 3.20E-06. In [9] (SK-BR3), the “TGI SK-BR3” value turned out to be 1.54E-06. Also, the “TGI IGROV” value in assay [10] (IGROV) came out at 1.78E-06. Moreover, the “TGI IGROV-ET” value in [11] (IGROV-ET) is reported as 2.93E-06. The LC50 in assay [12] (Homo sapiens, SK-OV-3, 48 h, read-out: LC50 SK-OV3, SK-OV3) was found to be 12.3 µM. For the same compound, in assay [12] (SK-OV3), the “TGI SK-OV3” value came to 3.40E-06. Moreover, in assay [13] (Homo sapiens, PANC-1, 48 h, read-out: LC50 PANC-1, PANC-1), the LC50 (concentration for 50% net cell kill) is 12.3 µM. Besides, the “TGI PANC-1” value in [13] (PANC-1) was determined as 5.10E-06.
